Assay results taken from US20250114338A1, “TETRAHYDRO-PYRIDO[3,4-b]INDOLE ESTROGEN RECEPTOR MODULATORS AND USES THEREOF” (Genentech, Inc., priority 2014, published 2025).

Tested on: ER-alpha MCF7
Assay: ER-alpha MCF7 HCS EC50; stated as measured by in vitro cell proliferation assays of Examples 902 and 903
Format: cell-based
Settings: Homo sapiens, MCF7, MCF7 cells; Table 2
Procedure, shortened: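 MCF7 cells seeded 1000-2000 cells/well for 16 h, then treated with nine-point 1:2 DMSO dilution series in quadruplicate at 37 °C, 5% CO2 for 4 days. Viable cells quantified by CellTiter-Glo ATP luminescence; EC50 calculated. Controls: fulvestrant at final 100 nM, DMSO 0.2% v/v.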

SMILES | EC50 [nM]
C[C@@H]1Cc2c([nH]c3ccccc23)[C@@H](c2c(F)cc(OC3CN(CCCF)C3)cc2F)N1CC(F)(F)F [Example 277, (1R,3R)-1-[2,6-difluoro-4-[1-(3-fluoropropyl)azetidin-3-yl]oxy-phenyl]-3-methyl-2-(2,2,2-trifluoroethyl)-1,3,4,9-tetrahydropyrido[3,4-b]indole] | 0.09
C[C@@H]1Cc2c([nH]c3ccccc23)[C@@H](c2c(F)cc(OCCN3CC(CF)C3)cc2F)N1C[C@@](C)(O)CO [Example 278, (2R)-3-[(1R,3R)-1-[2,6-difluoro-4-[2-[3-(fluoromethyl)azetidin-1-yl]ethoxy]phenyl]-3-methyl-1,3,4,9-tetrahydropyrido[3,4-b]indol-2-yl]-2-methyl-propane-1,2-diol] | 0.31
C[C@@H]1Cc2c([nH]c3ccccc23)[C@@H](c2ccc(OCCN3CC(CF)C3)c(F)c2)N1CC(C)(C)F [Example 279, (1R,3R)-2-(2-fluoro-2-methylpropyl)-1-(3-fluoro-4-(2-(3-(fluoromethyl)azetidin-1-yl)ethoxy)phenyl)-3-methyl-2,3,4,9-tetrahydro-1H-pyrido[3,4-b]indole] | 0.16
C[C@@H]1Cc2c([nH]c3ccccc23)[C@H](c2ccc(OCCN3CC(CF)C3)c(F)c2)N1CC(C)(C)F [Example 280, (1S,3R)-2-(2-fluoro-2-methylpropyl)-1-(3-fluoro-4-(2-(3-(fluoromethyl)azetidin-1-yl)ethoxy)phenyl)-3-methyl-2,3,4,9-tetrahydro-1H-pyrido[3,4-b]indole] | 6
C[C@@H]1Cc2c([nH]c3ccccc23)[C@@H](c2ccc(OCCN3CC(CF)C3)c(F)c2F)N1CC(C)(C)F [Example 281, (1R,3R)-1-(2,3-difluoro-4-(2-(3-(fluoromethyl)azetidin-1-yl)ethoxy)phenyl)-2-(2-fluoro-2-methylpropyl)-3-methyl-2,3,4,9-tetrahydro-1H-pyrido[3,4-b]indole] | 0.183
C[C@@H]1Cc2c([nH]c3ccccc23)[C@@H](c2c(F)cc(OC3CN(C[C@@H]4C[C@@H]4F)C3)cc2F)N1CC(C)(C)F [Example 282, (1R,3R)-1-(2,6-difluoro-4-((1-(((1S,2S)-2-fluorocyclopropyl)methyl)azetidin-3-yl)oxy)phenyl)-2-(2-fluoro-2-methylpropyl)-3-methyl-2,3,4,9-tetrahydro-1H-pyrido[3,4-b]indole] | 1
CC(=O)CN1[C@H](c2c(F)cc(OC3CN(CCCF)C3)cc2F)c2[nH]c3ccccc3c2C[C@H]1C [Example 283, 1-[(1R,3R)-1-[2,6-difluoro-4-[1-(3-fluoropropyl)azetidin-3-yl]oxy-phenyl]-3-methyl-1,3,4,9-tetrahydropyrido[3,4-b]indol-2-yl]propan-2-one] | 1
C[C@@H]1Cc2c([nH]c3ccccc23)[C@@H](c2c(F)cc(OC3CN(CCCF)C3)cc2F)N1CC(C)(C)CO [Example 284, 3-[(1R,3R)-1-[2,6-difluoro-4-[1-(3-fluoropropyl)azetidin-3-yl]oxy-phenyl]-3-methyl-1,3,4,9-tetrahydropyrido[3,4-b]indol-2-yl]-2,2-dimethyl-propan-1-ol] | 0.382
CCS(=O)(=O)N1[C@H](c2c(F)cc(OC3CN(CCCF)C3)cc2F)c2[nH]c3ccccc3c2C[C@H]1C [Example 285, (1R,3R)-1-[2,6-difluoro-4-[1-(3-fluoropropyl)azetidin-3-yl]oxy-phenyl]-2-ethylsulfonyl-3-methyl-1,3,4,9-tetrahydropyrido[3,4-b]indole] | 2
C[C@@H]1Cc2c([nH]c3ccccc23)[C@@H](c2c(F)cc(OCCN3CC(CF)C3)cc2F)N1CC(F)(F)CO [Example 286, 3-[(1R,3R)-1-[2,6-difluoro-4-[2-[3-(fluoromethyl)azetidin-1-yl]ethoxy]phenyl]-3-methyl-1,3,4,9-tetrahydropyrido[3,4-b]indol-2-yl]-2,2-difluoro-propan-1-ol] | 0.0978
C[C@@H]1Cc2c([nH]c3ccccc23)[C@@H](c2c(F)cc(OCCN3CC(CF)C3)cc2F)N1CC(C)(C)CO [Example 287, 3-[(1R,3R)-1-[2,6-difluoro-4-[2-[3-(fluoromethyl)azetidin-1-yl]ethoxy]phenyl]-3-methyl-1,3,4,9-tetrahydropyrido[3,4-b]indol-2-yl]-2,2-dimethyl-propan-1-ol] | 1
C[C@@H]1Cc2c([nH]c3ccccc23)[C@@H](c2c(F)cc(NC3CN(CCCF)C3)cc2F)N1C[C@@](C)(F)CO [Example 288, (R)-3-((1R,3R)-1-(2,6-difluoro-4-((1-(3-fluoropropyl)azetidin-3-yl)amino)phenyl)-3-methyl-1,3,4,9-tetrahydro-2H-pyrido[3,4-b]indol-2-yl)-2-fluoro-2-methylpropan-1-ol] | 0.0528
C[C@@H]1Cc2c([nH]c3ccccc23)[C@@H](c2c(F)cc(NC3CN(CCCF)C3)cc2F)N1C[C@](C)(F)CO [Example 289, (S)-3-((1R,3R)-1-(2,6-difluoro-4-((1-(3-fluoropropyl)azetidin-3-yl)amino)phenyl)-3-methyl-1,3,4,9-tetrahydro-2H-pyrido[3,4-b]indol-2-yl)-2-fluoro-2-methylpropan-1-ol] | 0.199
C[C@@H]1Cc2c([nH]c3ccccc23)[C@@H](c2ccc(NC3CN(CCCF)C3)cc2F)N1C[C@@](C)(F)CO [Example 290, (R)-2-fluoro-3-((1R,3R)-1-(2-fluoro-4-((1-(3-fluoropropyl)azetidin-3-yl)amino)phenyl)-3-methyl-1,3,4,9-tetrahydro-2H-pyrido[3,4-b]indol-2-yl)-2-methylpropan-1-ol] | 0.497
C[C@@H]1Cc2c([nH]c3ccccc23)[C@@H](c2ccc(NC3CN(CCCF)C3)cc2F)N1C[C@](C)(F)CO [Example 291, (S)-2-fluoro-3-((1R,3R)-1-(2-fluoro-4-((1-(3-fluoropropyl)azetidin-3-yl)amino)phenyl)-3-methyl-1,3,4,9-tetrahydro-2H-pyrido[3,4-b]indol-2-yl)-2-methylpropan-1-ol] | 0.13
C[C@@H]1Cc2c([nH]c3ccccc23)[C@@H](c2ccc(NC3CN(CCCF)C3)cc2)N1C[C@@](C)(F)CO [Example 292, (R)-2-fluoro-3-((1R,3R)-1-(4-((1-(3-fluoropropyl)azetidin-3-yl)amino)phenyl)-3-methyl-1,3,4,9-tetrahydro-2H-pyrido[3,4-b]indol-2-yl)-2-methylpropan-1-ol] | 2
C[C@@H]1Cc2c([nH]c3ccccc23)[C@@H](c2ccc(NC3CN(CCCF)C3)cc2)N1C[C@](C)(F)CO [Example 293, (S)-2-fluoro-3-((1R,3R)-1-(4-((1-(3-fluoropropyl)azetidin-3-yl)amino)phenyl)-3-methyl-1,3,4,9-tetrahydro-2H-pyrido[3,4-b]indol-2-yl)-2-methylpropan-1-ol] | 0.15
CC(=O)CN1[C@@H](c2c(F)cc(OC3CN(CCCF)C3)cc2F)c2[nH]c3ccccc3c2C[C@H]1C [Example 295, 1-((1S,3R)-1-(2,6-difluoro-4-((1-(3-fluoropropyl)azetidin-3-yl)oxy)phenyl)-3-methyl-1,3,4,9-tetrahydro-2H-pyrido[3,4-b]indol-2-yl)propan-2-one] | 21
C[C@@H]1Cc2c([nH]c3ccccc23)[C@@H](c2c(F)cc(NCCN3CC(CF)C3)cc2F)N1CC(F)(F)F [Example 296, 3,5-difluoro-N-(2-(3-(fluoromethyl)azetidin-1-yl)ethyl)-4-((1R,3R)-3-methyl-2-(2,2,2-trifluoroethyl)-2,3,4,9-tetrahydro-1H-pyrido[3,4-b]indol-1-yl)aniline] | 0.2
C[C@@H]1Cc2c([nH]c3ccccc23)[C@@H](c2c(F)cc(OCCN3CC(CF)C3)cc2F)N1C[C@H](C)C(=O)N(C)C [Example 297, (S)-3-((1R,3R)-1-(2,6-difluoro-4-(2-(3-(fluoromethyl)azetidin-1-yl)ethoxy)phenyl)-3-methyl-1,3,4,9-tetrahydro-2H-pyrido[3,4-b]indol-2-yl)-N,N,2-trimethylpropanamide] | 18
C[C@H](CN1[C@H](c2c(F)cc(OCCN3CC(CF)C3)cc2F)c2[nH]c3ccccc3c2C[C@H]1C)C(=O)N(C)C [Example 298, (R)-3-((1R,3R)-1-(2,6-difluoro-4-(2-(3-(fluoromethyl)azetidin-1-yl)ethoxy)phenyl)-3-methyl-1,3,4,9-tetrahydro-2H-pyrido[3,4-b]indol-2-yl)-N,N,2-trimethylpropanamide] | 5
C[C@@H]1Cc2c([nH]c3ccccc23)[C@@H](c2c(F)cc(OCCN3CC(CF)C3)cc2F)N1C[C@H](C)C(=O)O [Example 299, (S)-3-((1R,3R)-1-(2,6-difluoro-4-(2-(3-(fluoromethyl)azetidin-1-yl)ethoxy)phenyl)-3-methyl-1,3,4,9-tetrahydro-2H-pyrido[3,4-b]indol-2-yl)-2-methylpropanoic acid] | 3
C[C@H](CN1[C@H](c2c(F)cc(OCCN3CC(CF)C3)cc2F)c2[nH]c3ccccc3c2C[C@H]1C)C(=O)O [Example 300, (R)-3-((1R,3R)-1-(2,6-difluoro-4-(2-(3-(fluoromethyl)azetidin-1-yl)ethoxy)phenyl)-3-methyl-1,3,4,9-tetrahydro-2H-pyrido[3,4-b]indol-2-yl)-2-methylpropanoic acid] | 1
CC(C)(F)CN1[C@H](CF)Cc2c([nH]c3ccccc23)[C@H]1c1c(F)cc(OC2CN(CCCF)C2)cc1F [Example 301, (1R,3S)-1-(2,6-difluoro-4-((1-(3-fluoropropyl)azetidin-3-yl)oxy)phenyl)-2-(2-fluoro-2-methylpropyl)-3-(fluoromethyl)-2,3,4,9-tetrahydro-1H-pyrido[3,4-b]indole] | 0.0881
C[C@@H]1Cc2c([nH]c3ccccc23)[C@@H](c2c(F)cc(OC3CN(CCCF)C3)cc2F)N1CC(F)(F)CO [Example 302, 3-((1R,3R)-1-(2,6-difluoro-4-((1-(3-fluoropropyl)azetidin-3-yl)oxy)phenyl)-3-methyl-3,4-dihydro-1H-pyrido[3,4-b]indol-2(9H)-yl)-2,2-difluoropropan-1-ol] | 0.12
